Reference: ChEMBL document CHEMBL3286355, “New Hits as Antagonists of GPR103 Identified by HTS” (ACS Med Chem Lett, 2014)

Legend:
[1] = target: T1, Pyroglutamylated RF-amide peptide receptor (Homo sapiens, UniProt Q96P65); assay: Antagonist activity at human GPR103 receptor assessed as inhibition of inositol-1-phosphate production by cell-based assay; format: functional
T1 sequence (Q96P65 whole entry): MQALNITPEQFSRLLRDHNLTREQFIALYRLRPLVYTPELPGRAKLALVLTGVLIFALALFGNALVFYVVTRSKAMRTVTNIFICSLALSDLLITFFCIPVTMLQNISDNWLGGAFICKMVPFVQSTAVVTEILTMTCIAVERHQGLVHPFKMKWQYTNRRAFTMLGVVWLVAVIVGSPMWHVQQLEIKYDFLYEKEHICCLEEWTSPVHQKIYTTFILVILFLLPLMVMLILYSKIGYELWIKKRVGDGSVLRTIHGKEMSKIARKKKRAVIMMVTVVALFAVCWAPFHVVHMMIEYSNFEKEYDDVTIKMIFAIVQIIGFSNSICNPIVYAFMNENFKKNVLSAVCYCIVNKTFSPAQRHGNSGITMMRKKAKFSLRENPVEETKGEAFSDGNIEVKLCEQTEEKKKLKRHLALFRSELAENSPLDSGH

[2] = Distribution coefficient, log D of the compound at pH 7.4; settings: octanol/water
[3] = target: T1, Pyroglutamylated RF-amide peptide receptor; assay: Displacement of [125I]-QRFP43 from human GPR103 receptor overexpressed in HEK membranes after 90 mins by liquid scintillation counting; format: cell membranes
[4] = Dissociation constant, pKa of the compound; format: physicochemical

| SMILES | IC50 [1] | logD [2] | IC50 [3] | pKa [4] |
| --- | --- | --- | --- | --- |
| COc1ccc(NC(=N)Cc2ccccc2)cc1CSC1CCCC1 | 6.31 µM | 2.3 | – | – |
| CCC(=N)Nc1ccc(OC)c(CSC2CCCC2)c1 | > 39.8 µM | 1.2 | – | – |
| COc1ccc(NC(=N)c2nccs2)cc1CSC1CCCC1 | 2.51 µM | 4 | 25.1 µM | – |
| COc1ccc(NC(=N)c2ccncc2)cc1CSC1CCCC1 | 1.58 µM | 2.9 | – | – |
| COc1ccc(NC(=O)c2cccs2)cc1CSC1CCCC1 | 7.94 µM | > 4.2 | > 31.6 µM | – |
| C/N=C(\c1cccs1)N(C)c1ccc(OC)c(CSC2CCCC2)c1 | > 39.8 µM | 1.9 | – | – |
| COc1ccc(Nc2ccccn2)cc1CSC1CCCC1 | 12.6 µM | 4.6 | > 31.6 µM | – |
| COc1ccc(C(=N)Nc2ccccc2)cc1CSC1CCCC1 | 1 µM | 2.8 | 3.98 µM | – |
| N=C(Nc1cccc(CSC2CCCC2)c1)c1cccs1 | 0.794 µM | 3.8 | 2.51 µM | – |
| Cc1ccc(NC(=N)c2cccs2)cc1CSC1CCCC1 | 1.58 µM | > 3.8 | 10 µM | – |
| N=C(Nc1ccc(F)c(CSC2CCCC2)c1)c1cccs1 | 0.501 µM | > 3.9 | 1.26 µM | – |
| N=C(Nc1ccc(Cl)c(CSC2CCCC2)c1)c1cccs1 | 1 µM | 3.9 | 3.98 µM | – |
| N=C(Nc1ccc(OC(F)(F)F)c(CSC2CCCC2)c1)c1cccs1 | 2 µM | > 4.8 | – | – |
| COc1ccc(NC(=N)c2ccccc2)cc1C[S+]([O-])C1CCCC1 (centres undefined) | > 39.8 µM | 0.8 | – | – |
| COc1ccc(NC(=N)c2ccccc2)cc1CS(=O)(=O)C1CCCC1 | 31.6 µM | – | – | – |
| COc1ccc(NC(=N)c2cccs2)cc1COC1CCCC1 | 2.51 µM | 2.7 | 10 µM | – |
| COc1ccc(NC(=N)c2ccccc2)cc1CCC1CCCC1 | 0.316 µM | 3.8 | 0.2 µM | – |
| COc1ccc(NC(=N)c2ccccc2)cc1CSc1ccccc1 | 1.58 µM | 2.6 | 7.94 µM | – |
| COc1ccc(NC(=N)c2ccccc2)cc1CNC(=O)C1CCCC1 | 2.51 µM | 1.1 | 7.94 µM | – |
| Cc1cc2nc(NC(=N)N)nc(C)c2cc1C | 2.51 µM | < 0.6 | 5.01 µM | 9.3 |

The next molecules have a lower IC50 [1] than those just listed; values first:

| IC50 [1] | logD [2] | IC50 [3] | pKa [4] | SMILES |
| --- | --- | --- | --- | --- |
| 0.251 µM | 2.6 | 0.501 µM | – | COc1ccc(NC(=N)c2cccnc2)cc1CSC1CCCC1 |
| 0.251 µM | 3.1 | 0.631 µM | – | C/N=C(/Nc1ccc(OC)c(CSC2CCCC2)c1)c1cccs1 |
| 0.158 µM | 4.7 | – | – | COc1ccc(NC(=N)c2cc(Br)cs2)cc1CSC1CCCC1 |
| 0.1 µM | 2.5 | 0.126 µM | – | COc1ccc(NC(=N)c2ccsc2)cc1CSC1CCCC1 |
| 0.0794 µM | 2.3 | 0.0794 µM | 10.5 | COc1ccc(Cl)cc1NS(=O)(=O)c1ccc(OC)c2c1CC[C@@H](N(C)C)C2 |
| 0.0631 µM | 3.7 | 0.1 µM | – | COc1ccc(NC(=N)c2cc(C)cs2)cc1CSC1CCCC1 |
| 0.0501 µM | 3.3 | 0.158 µM | 8.1 | COc1ccc(NC(=N)c2cccs2)cc1CSC1CCCC1 |
| 0.02 µM | 2.5 | 0.0251 µM | – | COc1ccc(NC(=N)c2ccccc2)cc1CSC1CCCC1 |
| 0.02 µM | > 5 | 0.126 µM | – | COc1ccc(NC(=N)c2ccc(Br)s2)cc1CSC1CCCC1 |
| 0.0126 µM | 3.7 | 0.0398 µM | – | COc1ccc(NC(=N)c2ccc(Cl)cc2)cc1CSC1CCCC1 |
